Results as given in patent publication US20100173845A1, “USE OF FERTIRELIN AND DELTA-ENDORPHIN AS THERAPEUTIC AGENTS” (priority 2007, published 2010).
Where a SMILES comes first, the peptide text is derived from it. Where no end group is shown, it is not given here. [ ]: non-standard residue; d: D form. pGlu = O=C1CC[C@@H](C(=O)O)N1

Experiments:
HCMV strain AD169 = test: HCMV plaque formation assay in MRC-5 cells; conditions: for inhibition of HCMV plaque formation as compared to the virus control experiment: 10 micrograms per ml, 7-10 days, MRC-5 cells
[1] = system: Primary Human endothelial cells (HUVEC); test: Endothelial cell migration assay; assay type: cell-based; conditions: 10 micrograms per ml; 22 hours
Protocol: Thereafter, designated concentration of testing peptides−10 micrograms per ml−was added in duplicate wells.

murine spleen cells = test: Th1/Th2 cytokine profiling assay (Ovalbumin-restimulated spleen cells, CBA kit); assay type: cell-based, Balb/c mice; conditions: 10 micrograms per ml, 72 hours; for production of IL-5, decreased by: numbers are decreases; for production of IL-5, decreased by / production of IFN-y, induced/increased by / production of IL-2, induced/increased by / production of TNF-alpha, induced by (increase): words state no change; for production of IFN-y, induced/increased by / production of IL-2, induced/increased by / production of TNF-alpha, induced by (increase): numbers are increases
Description: The Balb/c mice (originated in 1923, it is a popular strain and is used in many different research disciplines. Also classified as an inbred from the production of 20 or more successive brother-sister matings, the Balb/c mouse is albino and small in size) were immunized on Days 1, 15, and 29 with Ovalbumin (Ovalbumin is the main protein found in egg white, commonly used to stimulate an immunological reaction in test animals) in PBS (5 micrograms/injection). On day 50, spleens of the mice were harvested (3 weeks after last boost with Ovalbumin). Cells were cultured (2×10^5/well in triplicate) and incubated with culture medium or test peptides−10 micrograms per ml−for 30 min. Thereafter, additional Ovalbumin was added to the cells at 10 micrograms/ml for in vitro restimulation of the cells. 72 hours later, cell supernatants were harvested and assayed using the Becton Dickinson Mouse Th1/Th2 Cytokine CBA Kit. This kit can be used to measure Interleukin-2 (IL-2), Interleukin-4 (IL-4), Interleukin-5 (IL-5), Interferon-γ (IFN-γ), and Tumor Necrosis Factor-α (TNF-α) protein levels in a single sample.

HUVEC = test: Endothelial tube formation assay; assay type: cell-based, human; conditions: 10 micrograms per ml; 20 hours
Description: […] control wes vehicle only. […] Raw data were expressed as average tubule lenghs in pixels±standard deviation.

[2] = system: hepatitis B virus (HBV) ayw strain; test: HBV assay, secreted HBV DNA by TaqMan PCR in HepG2-2.2.15 cells; assay type: cell-based; conditions: 10 micrograms per ml; six days; HBV DNA in supernatant

| Molecule | antiviral activity of positive control compound (HCMV strain AD169; HCMV in MRC-5 cells) | inhibition of HCMV plaque formation as compared to the virus control experiment (HCMV strain AD169) [%] | inhibition of the migration of human endothelial cells [1] | production of IL-4, induced/increased by (murine spleen cells; increase) [%] | production of IL-5, decreased by (murine spleen cells) | production of IFN-y, induced/increased by (murine spleen cells) | production of IL-2, induced/increased by (murine spleen cells) | production of TNF-alpha, induced by (increase) (murine spleen cells) | inhibition of the tube formation of human endothelial cells (HUVEC) [%] | inhibition of HBV replication as compared to the virus control infection [2] [%] | production of IL-4, decreased by (murine spleen cells; decrease) [%] |
| --- | --- | --- | --- | --- | --- | --- | --- | --- | --- | --- | --- |
| Nc1nc(O)c2ncn(COC(CO)CO)c2n1 [Ganciclovir, reference compound] | expected levels of antiviral activity | – | – | – | – | – | – | – | – | – | – |
| CCNC(=O)[C@@H]1CCCN1C(=O)[C@H](CCCNC(=N)N)NC(=O)[C@H](CC(C)C)NC(=O)CNC(=O)[C@H](Cc1ccc(O)cc1)NC(=O)[C@H](CO)NC(=O)[C@H](Cc1c[nH]c2ccccc12)NC(=O)[C@H](Cc1c[nH]cn1)NC(=O)[C@@H]1CCC(=O)N1 [Peptide 1] ([pGlu]HWSYGLRP-NHEt) | – | 2.1 | 26% | 139.7 | did not significantly change | 114.7% | 168.2% | 27.5% | 11 | 47.1 | – |
| YGGFMTSEKSQTPLVTLFKNAIIKNAY [Peptide 2] | – | 0.7 | no effect | – | 48.1% | did not significantly change | did not significantly change | did not significantly change | 11 | 0 | 31.5 |
